Reference: ChEMBL document CHEMBL3421553, “Design, synthesis, and biological evaluation of benzoselenazole-stilbene hybrids as multi-target-directed anti-cancer agents” (Eur J Med Chem, 2015)

Experiments:
MCF7 = test: Antiproliferative activity against human MCF7 cells assessed as cell viability after 48 hrs by MTT assay; type: functional, cell-based; settings: MCF7, 48 h
[1] = Antiproliferative activity against human Bel7402 cells assessed as cell viability after 48 hrs by MTT assay; type: functional, cell-based; settings: Bel-7402, 48 h
A549 = test: Antiproliferative activity against human A549 cells assessed as cell viability after 48 hrs by MTT assay; type: functional, cell-based; settings: A549, 48 h
Rattus norvegicus [2] = species: Rattus norvegicus; test: Inhibition of rat liver TrxR assessed as increase in absorbance at 10 uM by DTNB assay
[3] = Aqueous solubility of the compound in phosphate buffer at pH 7.4; type: physicochemical
HeLa = test: Antiproliferative activity against human HeLa cells assessed as cell viability after 48 hrs by MTT assay; type: functional, cell-based
[4] = Inhibition of rat liver TrxR assessed as increase in absorbance by DTNB assay
Bel-7402 [5] = test: Induction of apoptosis in human Bel7402 cells assessed as detection error cells at 3 uM after 48 hrs by flow cytometry (reference value: 0.43%); type: functional
[6] = Cell cycle arrest in human Bel7402 cells assessed as cells accumulation at G2/M phase at 5 uM after 48 hrs by flow cytometry (reference value: 16.61%); type: functional, cell-based; settings: Bel-7402
[7] = Cell cycle arrest in human Bel7402 cells assessed as cells accumulation at G1 phase at 5 uM after 48 hrs by flow cytometry (reference value: 62.60%); type: functional, cell-based; settings: Bel-7402
[8] = Cell cycle arrest in human Bel7402 cells assessed as cells accumulation at S phase at 5 uM after 48 hrs by flow cytometry (reference value: 13.99%); type: functional, cell-based; settings: Bel-7402
Bel-7402 [9] = test: Induction of apoptosis in human Bel7402 cells assessed as live cells at 1 uM after 48 hrs by flow cytometry (reference value: 98.65%); type: functional
[10] = Cell cycle arrest in human Bel7402 cells assessed as cells accumulation at Sub-G1 phase at 5 uM after 48 hrs by flow cytometry (reference value: 1.47%); type: functional, cell-based; settings: Bel-7402
Bel-7402 [11] = test: Induction of apoptosis in human Bel7402 cells assessed as live cells at 5 uM after 48 hrs by flow cytometry (reference value: 98.65%); type: functional
Bel-7402 [12] = test: Induction of apoptosis in human Bel7402 cells assessed as necrotic cells at 3 uM after 48 hrs by flow cytometry (reference value: 0.19%); type: functional
[13] = Cell cycle arrest in human Bel7402 cells assessed as cells accumulation at S phase at 3 uM after 48 hrs by flow cytometry (reference value: 13.99%); type: functional, cell-based; settings: Bel-7402
Bel-7402 [14] = test: Induction of apoptosis in human Bel7402 cells assessed as apoptotic cells at 5 uM after 48 hrs by flow cytometry (reference value: 0.73%); type: functional
Bel-7402 [15] = test: Induction of apoptosis in human Bel7402 cells assessed as necrotic cells at 1 uM after 48 hrs by flow cytometry (reference value: 0.19%); type: functional
Bel-7402 [16] = test: Induction of apoptosis in human Bel7402 cells assessed as detection error cells at 5 uM after 48 hrs by flow cytometry (reference value: 0.43%); type: functional
Bel-7402 [17] = test: Induction of apoptosis in human Bel7402 cells assessed as apoptotic cells at 3 uM after 48 hrs by flow cytometry (reference value: 0.73%); type: functional
[18] = Cell cycle arrest in human Bel7402 cells assessed as cells accumulation at G1 phase at 0.5 uM after 48 hrs by flow cytometry (reference value: 62.60%); type: functional, cell-based; settings: Bel-7402
[19] = Cell cycle arrest in human Bel7402 cells assessed as cells accumulation at G2/M phase at 0.5 uM after 48 hrs by flow cytometry (reference value: 16.61%); type: functional, cell-based; settings: Bel-7402
Bel-7402 [20] = test: Induction of apoptosis in human Bel7402 cells assessed as detection error cells at 1 uM after 48 hrs by flow cytometry (reference value: 0.43%); type: functional
Bel-7402 [21] = test: Induction of apoptosis in human Bel7402 cells assessed as apoptotic cells at 0.5 uM after 48 hrs by flow cytometry (reference value: 0.73%); type: functional
[22] = Cell cycle arrest in human Bel7402 cells assessed as cells accumulation at Sub-G1 phase at 3 uM after 48 hrs by flow cytometry (reference value: 1.47%); type: functional, cell-based; settings: Bel-7402
[23] = Cell cycle arrest in human Bel7402 cells assessed as cells accumulation at S phase at 1 uM after 48 hrs by flow cytometry (reference value: 13.99%); type: functional, cell-based; settings: Bel-7402
Bel-7402 [24] = test: Induction of apoptosis in human Bel7402 cells assessed as live cells at 0.5 uM after 48 hrs by flow cytometry (reference value: 98.65%); type: functional
Bel-7402 [25] = test: Induction of apoptosis in human Bel7402 cells assessed as live cells at 3 uM after 48 hrs by flow cytometry (reference value: 98.65%); type: functional
Bel-7402 [26] = test: Induction of apoptosis in human Bel7402 cells assessed as necrotic cells at 0.5 uM after 48 hrs by flow cytometry (reference value: 0.19%); type: functional
[27] = Cell cycle arrest in human Bel7402 cells assessed as cells accumulation at Sub-G1 phase at 1 uM after 48 hrs by flow cytometry (reference value: 1.47%); type: functional, cell-based; settings: Bel-7402
[28] = Cell cycle arrest in human Bel7402 cells assessed as cells accumulation at Sub-G1 phase at 0.5 uM after 48 hrs by flow cytometry (reference value: 1.47%); type: functional, cell-based; settings: Bel-7402
[29] = Cell cycle arrest in human Bel7402 cells assessed as cells accumulation at G1 phase at 1 uM after 48 hrs by flow cytometry (reference value: 62.60%); type: functional, cell-based; settings: Bel-7402
[30] = Cell cycle arrest in human Bel7402 cells assessed as cells accumulation at G2/M phase at 1 uM after 48 hrs by flow cytometry (reference value: 16.61%); type: functional, cell-based; settings: Bel-7402
[31] = Cell cycle arrest in human Bel7402 cells assessed as cells accumulation at G2/M phase at 3 uM after 48 hrs by flow cytometry (reference value: 16.61%); type: functional, cell-based; settings: Bel-7402
[32] = Cell cycle arrest in human Bel7402 cells assessed as cells accumulation at G1 phase at 3 uM after 48 hrs by flow cytometry (reference value: 62.60%); type: functional, cell-based; settings: Bel-7402
Bel-7402 [33] = test: Induction of apoptosis in human Bel7402 cells assessed as apoptotic cells at 1 uM after 48 hrs by flow cytometry (reference value: 0.73%); type: functional
Bel-7402 [34] = test: Induction of apoptosis in human Bel7402 cells assessed as detection error cells at 0.5 uM after 48 hrs by flow cytometry (reference value: 0.43%); type: functional
Bel-7402 [35] = test: Induction of apoptosis in human Bel7402 cells assessed as necrotic cells at 5 uM after 48 hrs by flow cytometry (reference value: 0.19%); type: functional
[36] = Cell cycle arrest in human Bel7402 cells assessed as cells accumulation at S phase at 0.5 uM after 48 hrs by flow cytometry (reference value: 13.99%); type: functional, cell-based; settings: Bel-7402
Bel-7402 [37] = test: Induction of apoptosis in human Bel7402 cells assessed as live cells at 50 uM after 48 hrs by flow cytometry (reference value: 98.65%); type: functional
[38] = Cell cycle arrest in human Bel7402 cells assessed as cells accumulation at Sub-G1 phase at 50 uM after 48 hrs by flow cytometry (reference value: 1.47%); type: functional, cell-based; settings: Bel-7402
Bel-7402 [39] = test: Induction of apoptosis in human Bel7402 cells assessed as apoptotic cells at 50 uM after 48 hrs by flow cytometry (reference value: 0.73%); type: functional
[40] = Cell cycle arrest in human Bel7402 cells assessed as cells accumulation at S phase at 50 uM after 48 hrs by flow cytometry (reference value: 13.99%); type: functional, cell-based; settings: Bel-7402
Bel-7402 [41] = test: Induction of apoptosis in human Bel7402 cells assessed as detection error cells at 50 uM after 48 hrs by flow cytometry (reference value: 0.43%); type: functional
[42] = Cell cycle arrest in human Bel7402 cells assessed as cells accumulation at G2/M phase at 50 uM after 48 hrs by flow cytometry (reference value: 16.61%); type: functional, cell-based; settings: Bel-7402
Rattus norvegicus [43] = species: Rattus norvegicus; test: Inhibition of rat liver TrxR assessed as increase in absorbance at 50 uM by DTNB assay
Bel-7402 [44] = test: Induction of apoptosis in human Bel7402 cells assessed as necrotic cells at 50 uM after 48 hrs by flow cytometry (reference value: 0.19%); type: functional
[45] = Cell cycle arrest in human Bel7402 cells assessed as cells accumulation at G1 phase at 50 uM after 48 hrs by flow cytometry (reference value: 62.60%); type: functional, cell-based; settings: Bel-7402

## COc1ccc(/C=C/c2ccc(-n3[se]c4ccc(Cl)cc4c3=O)cc2)cc1OC
MCF7
  IC50: 16.9 µM
[1]
  IC50: 6.13 µM
A549
  IC50: 6.95 µM
Rattus norvegicus [2]
  inhibition: 38.4%
[3]
  solubility: < 20 µM
HeLa
  IC50: 12 µM

## COc1cccc(/C=C/c2ccc(-n3[se]c4ccccc4c3=O)cc2)c1
MCF7
  IC50: 9.62 µM
[1]
  IC50: 13.2 µM
A549
  IC50: 10.4 µM
[4]
  IC50: 12.8 µM
HeLa
  IC50: 7.34 µM

## COc1ccc(/C=C/c2ccc(-n3[se]c4ccccc4c3=O)cc2)cc1OC
Bel-7402 [5]
  Activity: 2.39%
[6]
  Activity: 44.2%
[7]
  Activity: 37%
[8]
  Activity: 8.32%
Bel-7402 [9]
  Activity: 79.95%
[10]
  Activity: 6.69%
Bel-7402 [11]
  Activity: 38.16%
Bel-7402 [12]
  Activity: 5.49%
[13]
  Activity: 9.57%
MCF7
  IC50: 3.37 µM
Bel-7402 [14]
  Activity: 53.63%
Bel-7402 [15]
  Activity: 3.04%
Bel-7402 [16]
  Activity: 2.95%
Bel-7402 [17]
  Activity: 36.71%
[1]
  IC50: 1.01 µM
A549
  IC50: 1.53 µM
[18]
  Activity: 55.8%
[19]
  Activity: 22.2%
Bel-7402 [20]
  Activity: 3.45%
Bel-7402 [21]
  Activity: 6.73%
[22]
  Activity: 5.47%
[23]
  Activity: 6.93%
Bel-7402 [24]
  Activity: 89.75%
Bel-7402 [25]
  Activity: 55.41%
Bel-7402 [26]
  Activity: 1.29%
[27]
  Activity: 5.15%
[28]
  Activity: 0.2%
[29]
  Activity: 49%
[30]
  Activity: 33.8%
[3]
  solubility: > 100 µM
[4]
  IC50: 3.1 µM
[31]
  Activity: 42%
[32]
  Activity: 40.4%
Bel-7402 [33]
  Activity: 13.55%
HeLa
  IC50: 1.52 µM
Bel-7402 [34]
  Activity: 2.22%
Bel-7402 [35]
  Activity: 5.26%
[36]
  Activity: 14%

## COc1cc(/C=C/c2ccc(-n3[se]c4cc(F)ccc4c3=O)cc2)cc(OC)c1
MCF7
  IC50: 0.51 µM
[1]
  IC50: 0.99 µM
A549
  IC50: 1.22 µM
Rattus norvegicus [2]
  inhibition: 36.6%
[3]
  solubility: < 10 µM
HeLa
  IC50: 0.64 µM

## Oc1ccc(/C=C/c2cc(O)cc(O)c2)cc1 [RESVERATROL]
Bel-7402 [37]
  Activity: 85.3%
MCF7
  IC50: > 100 µM
[38]
  Activity: 0.15%
Bel-7402 [39]
  Activity: 13.2%
[40]
  Activity: 9.83%
[1]
  IC50: 50.7 µM
A549
  IC50: > 100 µM
Bel-7402 [41]
  Activity: 0.03%
[42]
  Activity: 31.2%
Rattus norvegicus [43]
  inhibition: 26.1%
HeLa
  IC50: 47.9 µM
Bel-7402 [44]
  Activity: 0.01%
[45]
  Activity: 59%

## COc1cc(/C=C\c2ccc(-n3[se]c4ccccc4c3=O)cc2)cc(OC)c1
MCF7
  IC50: 56.3 µM
[1]
  IC50: 36.1 µM
A549
  IC50: 43 µM
[4]
  IC50: 9.62 µM
HeLa
  IC50: 28.4 µM

## COc1cc(/C=C/c2ccc(-n3[se]c4ccccc4c3=O)cc2)cc(OC)c1OC
MCF7
  IC50: 3.97 µM
[1]
  IC50: 1.11 µM
A549
  IC50: 3.11 µM
[4]
  IC50: 5.78 µM
HeLa
  IC50: 5.67 µM
